Measurements as given in US8383637B2, “2-amino-quinazoline derivatives useful as inhibitors of β-secretase (BACE)” (Jansssen Pharmaceutica N.V., priority 2004, dated 2013).
Read-outs that look alike come from different tables or passages of the source.

Biological target: T1, β-secretase(BACE) (Homo sapiens, UniProt P56817)
T1 construct: purchased Panvera
Test: BACE FS1% Inhibition Assay
Type: biochemical
Conditions: FS1 substrate; for % Inhibition (FS) 10 μM: 10 μM test compound
Method: BACE FS1% Inhibition Assay The following reagents were used in this assay: sodium acetate, PEG8000 (Sigma), DMSO, HEPES, FS1 substrate [[…]] […] The FS1-substrate stock solution was prepared in DMSO as a 10 mg/mL solution. The FS1-substrate working solution was prepared by diluting the 10 mg/mL stock solution with substrate assay buffer to a final concentration of 300 μg/mL. The β-secretase (BACE) working solution was prepared by diluting a 0.83 mg/mL BACE stock solution with enzyme assay buffer to a final concentration of 4 μg/mL. Test compounds were dissolved in DMSO to 10 mM. […] The screening procedure for this assay was as follows: 15 μL of BACE working solution was pipetted into each well of a 96-well plate. To each well was then pipetted 2 μL of test compound at the selected concentration. Test compound and BACE were then mixed with a pipettor and incubated for 20 min at room temperature. To each well was then added 10 μL of the FS1 substrate working solution. The plates were then incubated for 1 hour at room temperature. […] The procedure for the blank was as follows. 15 μL of assay buffer was pipetted into each well to be used as a blank control. To each well was then added 2 μL of vehicle and 10 μL of FS1-substrate working solution. The plates were then incubated for 1 hour at room temperature. […] The procedure for the positive control was as follows: 15 μL of BACE working solution was pipetted into each well to be used as a positive control. To each well was then pipetted 2 μL of vehicle. Vehicle and BACE were then mixed with a pipettor and incubated for 20 min at room temperature. To each well was then added 10 μL of the FS1 substrate working solution. The plates were then incubated for 1 hour at room temperature. […] For test compounds, % inhibition was determined at each concentration as follows: [formula]

[1] = 0.3 μM test compound, read-out: % Inhibition (FS)
[2] = 1 μM test compound, read-out: % Inhibition (FS)
[3] = 3 μM test compound, read-out: % Inhibition (FS)

T1 sequence (P56817 46-501): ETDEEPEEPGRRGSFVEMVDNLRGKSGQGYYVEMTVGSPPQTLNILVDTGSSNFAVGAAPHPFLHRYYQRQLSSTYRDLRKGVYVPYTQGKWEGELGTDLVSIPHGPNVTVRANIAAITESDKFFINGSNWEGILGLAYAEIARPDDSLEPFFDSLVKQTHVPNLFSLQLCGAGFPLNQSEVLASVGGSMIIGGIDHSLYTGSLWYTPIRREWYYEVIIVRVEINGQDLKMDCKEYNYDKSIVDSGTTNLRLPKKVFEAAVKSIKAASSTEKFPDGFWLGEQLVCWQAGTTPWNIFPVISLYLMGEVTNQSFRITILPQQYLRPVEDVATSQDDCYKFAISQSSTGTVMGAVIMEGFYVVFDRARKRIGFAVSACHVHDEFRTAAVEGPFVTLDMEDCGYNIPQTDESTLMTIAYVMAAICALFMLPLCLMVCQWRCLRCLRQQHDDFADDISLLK

Row | % Inhibition (FS) 0.3 μM (0.3 μM test compound) | % Inhibition (FS) 1 μM (1 μM test compound) | % Inhibition (FS) 3 μM (3 μM test compound) | also measured | SMILES
1 | <30% | <30% | 59% |  | Cc1cc(C(=O)NCCN2Cc3cc(-c4ccccc4)ccc3N=C2N)c(C)o1 [Compound 586]
2 | <30% | <30% | 31% |  | CC(C)c1ccccc1Oc1ccc2c(c1)CN(C(CC(=O)NC1CCCCC1)C1CCCCC1)C(N)=N2 (centres unmarked) [Compound 313]
3 |  |  | <30% | % Inhibition (FS) 10 μM: 32% | NC1=Nc2ccc(Oc3ccccc3)cc2CN1CCCNC(=O)C1CC1 [Compound 143]
4 | <30% | <30% | <30% |  | CN(C(=O)c1cccc(CN2Cc3cc(OCC4CCCC4)ccc3N=C2N)c1)C1CCCCC1 [Compound 521]
5 | <30% | <30% | 31% |  | CC(C)(C)C1CCC(C(=O)NCCN2Cc3cc(Oc4ccccc4)ccc3N=C2N)CC1 (centres unmarked) [Compound 184]
6 |  |  |  | % Inhibition (FS) (0.3 μM test compound): <30%; % Inhibition (FS) (1 μM test compound): 77%; % Inhibition (FS) (3 μM test compound): 113% | CN(Cc1cccc(CC(=O)O)c1)C(=O)CCC(C1CCCCC1)N1Cc2cc(Oc3ccccc3)ccc2N=C1N (centres unmarked) [Compound 778]
7 | <30% | 35% | <30% |  | CC(=O)Nc1cccc(Oc2ccc3c(c2)CN(Cc2cccc(C(=O)N(C)C4CCCCC4)c2)C(N)=N3)c1 [Compound 229]
8 | <30% | <30% | <30% |  | CN(CCN1Cc2cc(Oc3ccccc3)ccc2N=C1N)C1CCCCC1 [Compound 429]
9 | <30% | <30% | 31% |  | CN(C(=O)c1cccc(CN2Cc3cc(Oc4ccccc4-c4nc5ccccc5s4)ccc3N=C2N)c1)C1CCCCC1 [Compound 470]
10 | <30% | <30% | <30% |  | CSc1ccccc1Oc1ccc2c(c1)CN(Cc1cccc(C(=O)N(C)C3CCCCC3)c1)C(N)=N2 [Compound 474]
11 | <30% | <30% | 72% |  | Cc1cc(C)cc(Sc2ccc3c(c2)CN(Cc2cccc(C(=O)N(C)C4CCCCC4)c2)C(N)=N3)c1 [Compound 409]
12 |  |  |  | % Inhibition (FS) (0.3 μM test compound): <30%; % Inhibition (FS) (1 μM test compound): 71%; % Inhibition (FS) (3 μM test compound): 106% | CN(CC(=O)O)C(=O)CCC(C1CCCCC1)N1Cc2cc(Oc3ccccc3)ccc2N=C1N (centres unmarked) [Compound 767]
13 |  |  | <30% | % Inhibition (FS) 10 μM: 38% | CCCCCCCCCC(=O)NCCN1Cc2cc(Oc3ccccc3)ccc2N=C1N [Compound 142]
14 |  |  | <30% | % Inhibition (FS) 10 μM: 34% | NC1=Nc2ccc(Oc3ccccc3)cc2CN1C1CCN(C(=O)C2CCCC2)C1 (centres unmarked) [Compound 120]
15 |  |  | <30% | % Inhibition (FS) 10 μM: 39% | COc1ccc2c(c1)C(CC(=O)N(C)C1CCCCC1)CC2N1Cc2cc(Oc3ccccc3)ccc2N=C1N (centres unmarked) [Compound 146]
16 |  |  |  | % Inhibition (FS) 0.3 μM (0.3 μM test compound, 0.3 µM): <30%; % Inhibition (FS) 1 μM (1 μM test compound, 1 µM): <30%; % Inhibition (FS) 3 μM (3 μM test compound, 3 µM): 46% | CCCC(CNC(=O)C12CC3CC(CC(C3)C1)C2)N1Cc2cc(Oc3ccccc3)ccc2N=C1N (centres unmarked) [Compound 555]
17 | <30% | <30% | 56% |  | NC1=Nc2ccc(-c3ccc(Cl)cc3)cc2CN1CCNC(=O)C1CCCCC1 [Compound 626]
18 | <30% | <30% | 38% |  | C=CCc1cccc(C)c1Oc1ccc2c(c1)CN(Cc1cccc(C(=O)N(C)C3CCCCC3)c1)C(N)=N2 [Compound 480]
19 |  |  |  | % Inhibition (FS) 0.3 μM (0.3 μM test compound, 0.3 µM): 78%; % Inhibition (FS) 1 μM (1 μM test compound, 1 µM): 113%; % Inhibition (FS) 3 μM (3 μM test compound, 3 µM): 121% | CCCC(CNC(=O)C12CC3CC(CC(C3)C1)C2)N1Cc2cc(Oc3ccccc3)ccc2N=C1N (centres unmarked) [Compound 602]
20 | <30% | <30% | 48% |  | CC(C)c1ccc(Sc2ccc3c(c2)CN(Cc2cccc(C(=O)N(C)C4CCCCC4)c2)C(N)=N3)cc1 [Compound 407]

Row | % Inhibition (FS) 0.3 μM (0.3 μM test compound) | % Inhibition (FS) 1 μM (1 μM test compound) | % Inhibition (FS) 3 μM (3 μM test compound) | also measured | SMILES
21 | <30% | <30% | 43% |  | CCCc1cccc(C)c1Oc1ccc2c(c1)CN(Cc1cccc(C(=O)N(C)C3CCCCC3)c1)C(N)=N2 [Compound 482]
22 | <30% | <30% | 77% |  | NC1=Nc2ccc(Oc3ccccc3)cc2CN1CCC(=O)N(C1CCCCC1)C1CCCCC1 [Compound 180]
23 | <30% | <30% | <30% |  | CN1CCC(N(C)C(=O)c2cccc(CN3Cc4cc(Oc5ccccc5)ccc4N=C3N)c2)CC1 [Compound 223]
24 | <30% | <30% | <30% |  | COc1ccccc1-c1ccc2c(c1)CN(CCNC(=O)C1(C(N)=O)CC1)C(N)=N2 [Compound 488]
25 | <30% | 42% | 78% |  | NC1=Nc2ccc(Oc3ccccc3)cc2CN1C(CCCC(=O)N1CCCCC1)CCC(=O)N1CCCCC1 (centres unmarked) [Compound 452]
26 |  |  |  | % Inhibition (FS) (0.3 μM test compound): <30%; % Inhibition (FS) (1 μM test compound): 50%; % Inhibition (FS) (3 μM test compound): 87% | NC1=Nc2ccc(-c3ccccc3F)cc2CN1CCNC(=O)C1CCOCC1 [Compound 687]
27 |  |  |  | % Inhibition (FS) (0.3 μM test compound): <30%; % Inhibition (FS) (1 μM test compound): <30%; % Inhibition (FS) (3 μM test compound): <30% | NC1=Nc2ccc(-c3ccc4ccccc4c3)cc2CN1CCNC(=O)C1CCC1 [Compound 663]
28 | 63% | 86% | 105% |  | Cc1ccccc1-c1ccc2c(c1)CN(CCNC(=O)C(C)(C)C)C(N)=N2 [Compound 660]
29 |  |  |  | inhibition at 0.3 µM [1]: < 30%; inhibition at 1 µM [2]: < 30%; inhibition at 3 µM [3]: < 30% | CN(C(=O)c1cccc(CN2Cc3ccccc3N=C2N)c1)C1CCCCC1 [Compound 801]
30 |  |  |  | % Inhibition (FS) (0.3 μM test compound): 106%; % Inhibition (FS) (1 μM test compound): 109%; % Inhibition (FS) (3 μM test compound): 121% | CN(C(=O)CCC(C1CCCCC1)N1Cc2cc(Oc3ccccc3)ccc2N=C1N)C(COCc1ccccc1)C(=O)O (centres unmarked) [Compound 781]
31 |  |  |  | % Inhibition (FS) (0.3 μM test compound): <30%; % Inhibition (FS) (1 μM test compound): <30%; % Inhibition (FS) (3 μM test compound): <30% | CC(C)CCC(=O)NCCN1Cc2cc(-c3ccc4ccccc4c3)ccc2N=C1N [Compound 668]
32 |  |  |  | % Inhibition (FS) (0.3 μM test compound): 33%; % Inhibition (FS) (1 μM test compound): <30%; % Inhibition (FS) (3 μM test compound): 44% | CCCCC(CC)C(=O)NCCN1Cc2cc(-c3cnc4ccccc4c3)ccc2N=C1N (centres unmarked) [Compound 676]
33 |  |  |  | % Inhibition (FS) (0.3 μM test compound): 78%; % Inhibition (FS) (1 μM test compound): 99%; % Inhibition (FS) (3 μM test compound): 103% | Cc1ccccc1-c1ccc2c(c1)CN(CCNC(=O)CC(C)C(F)(F)F)C(N)=N2 (centres unmarked) [Compound 679]
34 |  |  |  | inhibition at 0.3 µM [1]: < 30%; inhibition at 1 µM [2]: < 30%; inhibition at 3 µM [3]: < 30% | COc1cccc(CCNC(=O)CCC(C2CCCCC2)N2Cc3cc(F)ccc3N=C2N)c1 (centres unmarked) [Compound 810]
35 |  |  |  | % Inhibition (FS) (0.3 μM test compound): <30%; % Inhibition (FS) (1 μM test compound): 73%; % Inhibition (FS) (3 μM test compound): 80% | NC1=Nc2ccc(-c3ccc4ccccc4c3)cc2CN1CCNC(=O)CCC(F)(F)F [Compound 686]
36 | <30% | <30% | <30% |  | CN(C(=O)c1cccc(CN2Cc3cc(Nc4ccc(N5CCOCC5)cc4)ccc3N=C2N)c1)C1CCCCC1 [Compound 439]
37 | <30% | <30% | <30% |  | CC(=O)Nc1ccc(C(=O)NCCN2Cc3cc(-c4cccc(C(F)(F)F)c4)ccc3N=C2N)cc1 [Compound 594]
38 |  |  |  | inhibition at 0.3 µM (0.3 μM test compound, read-out: % Inhibition (FS) 0.3 μM): < 30%; inhibition at 1 µM (1 μM test compound, read-out: % Inhibition (FS) 1 μM): 34%; inhibition at 3 µM (3 μM test compound, read-out: % Inhibition (FS) 3 μM): 41% | COc1ccccc1-c1ccc2c(c1)N=C(N)N(CCC(=O)NC1C3CC4CC(C3)CC1C4)C2 (centres unmarked) [Compound 617, N-Adamantan-2-yl-3-[2-amino-7-(2-methoxy-phenyl)-4H-quinazolin-3-yl]-propionamide]
39 | <30% | 42% | 38% |  | CCCCCC1CC2(C(=O)NCCN3Cc4cc(Oc5ccccc5)ccc4N=C3N)CCC1CC2 (centres unmarked) [Compound 194]
40 | <30% | <30% | <30% |  | CN(C(=O)c1ncoc1C(Cc1ccccc1)N1Cc2cc(Oc3ccccc3)ccc2N=C1N)C1CCCCC1 (centres unmarked) [Compound 559]
